{
  "source": "EPA's ToxValDB 9.5 (doi:10.2903/j.efsa.2008.136r)",
  "key": {"Anas platyrhynchos": {"system": "Anas platyrhynchos", "conditions": "oral, mortality"}, "Apis mellifera": {"system": "Apis mellifera", "conditions": "acute; duration: 48 hours; oral; unspecified; mortality"}, "Canidae": {"system": "Canidae", "conditions": "oral, Dog Other, organ weight"}, "Colinus virginianus": {"system": "Colinus virginianus", "conditions": "acute, oral, mortality"}, "Coturnix japonica": {"system": "Coturnix japonica", "conditions": "reproduction developmental"}, "Daphnia magna": {"system": "Daphnia magna", "conditions": "chronic/long-term; duration: 21 days; reproduction"}, "Oncorhynchus mykiss": {"system": "Oncorhynchus mykiss", "conditions": "acute; duration: 96 hours; mortality"}, "Pimephales promelas": {"system": "Pimephales promelas", "conditions": "chronic/long-term; duration: 35 days; growth"}, "Typhlodromus pyri": {"system": "Typhlodromus pyri", "conditions": "acute; duration: 7 days; mortality"}},
  "data": [
    {"smiles": "Clc1ccc(C2(Cn3cncn3)CC(Br)CO2)c(Cl)c1", "note": "(stereo not drawn) [Bromuconazole]", "values": [
      {"measurement": "LD50", "setting": "Anas platyrhynchos; acute, unspecified", "result": "> 2150", "unit": "mg/kg-day"},
      {"measurement": "LC50", "setting": "Anas platyrhynchos; short-term, feed", "result": "> 684", "unit": "mg/kg-day"},
      {"measurement": "LD50", "setting": "Apis mellifera", "result": "> 100", "unit": "µg/piece"},
      {"measurement": "NOAEL", "setting": "Canidae; chronic, duration: 1 years", "result": 2.5, "unit": "mg/kg-day"},
      {"measurement": "NOAEL", "setting": "Canidae; subchronic, duration: 90 days", "result": 2.5, "unit": "mg/kg-day"},
      {"measurement": "LC50", "setting": "Colinus virginianus; diet", "result": "> 778", "unit": "mg/kg-day"},
      {"measurement": "LD50", "setting": "Colinus virginianus", "result": "> 2150", "unit": "mg/kg-day"},
      {"measurement": "NOEC", "setting": "Coturnix japonica", "result": 26.5, "unit": "mg/kg-day"},
      {"measurement": "NOEC", "setting": "Daphnia magna", "result": 0.02, "unit": "mg/L"},
      {"measurement": "LC50", "setting": "Oncorhynchus mykiss", "result": 1.7, "unit": "µg/mL"},
      {"measurement": "NOEC", "setting": "Pimephales promelas", "result": 0.065, "unit": "mg/L"},
      {"measurement": "LD50", "setting": "Rattus norvegicus; acute, F, mortality", "result": 328, "unit": "mg/kg-day"},
      {"measurement": "NOAEL", "setting": "Rattus norvegicus; chronic, duration: 2 years, oral, diet, histopathology: nonneoplastic", "result": 0.88, "unit": "mg/kg-day"},
      {"measurement": "NOAEL", "setting": "Rattus norvegicus; developmental, development", "result": 10, "unit": "mg/kg-day"},
      {"measurement": "NOEC", "setting": "Rattus norvegicus; reproduction developmental, reproduction", "result": 1.3, "unit": "mg/kg-day"},
      {"measurement": "LC50", "setting": "Tagia sp.; acute, duration: 14 days, mortality", "result": "> 1000", "unit": "mg/kg"},
      {"measurement": "NOEC", "setting": "Tagia sp.; chronic/long-term, duration: 56 days", "result": 37.2, "unit": "mg/kg"},
      {"measurement": "LEL", "setting": "Typhlodromus pyri", "result": 260, "unit": "g/ha"}
    ]}
  ]
}
